Laboratory results taken from patent US20130136712A1, “Malodor Control Compositions Comprising Malodor Control Polymers And Acid Catalysts And Methods Thereof” (priority 2011, published 2013).

Columns and labels:
[1] = Table 1, Accord A; cited from earlier work
[2] = benchmark for HMPs; cited from earlier work
[3] = Malodor control performance of HMPs, headspace SPME GC/MS of spiked test solution; details: 5 ml test solution spiked with 5 microliters; 2 hours room temperature, 30 minutes 35° C.; Control = 1.0
Method: This example illustrates the malodor efficacy of the HMPs of the present invention. Isovaleric acid was chosen as a chemical surrogate for body odor while butylamine was used as a representative for amine-containing odors such as fish, pet urine, etc. Hydrophobic greasy cooking odors were represented by aldehydes such as nonanal.
The solutions are first equilibrated at room temperature for 2 hours, then incubated at 35° C. for 30 minutes. The headspace of each vial is finally sampled using a polydimethyl siloxane (PDMS) / Solid-Phase-Micro-Extraction (SPME) fiber and analyzed by GC/MS. The reductions in head space concentrations of odor molecules are measured and the data are normalized to Control.
Lower numbers denote high levels of malodor molecules present in the solution that are attributed to high malodor control efficacy of polymers.

[4] = Sulfur odor control performance of zinc polymer complexes, headspace GC/MS; details: spiked with 3 parts-per-million; 2 hours room temperature, 30 minutes 35° C.; Control = 1.0
Method: Butanethiol and dipropoyl sulfide were chosen as chemical surrogates for sulfur containing odors such as kitchen (onion/garlic), sewage, etc. These two molecules also enable the assessment of efficacy of polymer for sulfur molecules having different degrees of hydrophobicity (e.g more hydrophobic dipropylsulfide is usually harder to mitigate with hydrophilic technologies such as cyclodextrin).
5 ml test solution was placed in a GC-MS vial and spiked with 3 parts-per-million of butanethiol or dipropylsulfide. The solutions were first equilibrated at room temperature for 2 hours, then incubated at 35° C. for 30 minutes. The headspace of each vial was finally sampled using a PDMS/SPME fiber and analyzed by GC/MS. The reductions in head space concentrations of sulfur molecules were measured and the data were normalized to Control (Table 9).

[5] = system: Soiled sponge samples (microbe reduction); assay: Odor prevention performance, SOLARIS detection of acidic respiratory byproducts; type: cell-based; details: sponge treated 15 minutes, dried 12 hours; incubated 120 hrs at 37° C.
Method: The Control formulation containing no malodor control polymer or zinc salt, and Formulations containing individual polymers, zinc salts, and zinc-polymer complexes are compared for their effect on odor prevention, through microbe reduction.
Soiled sponge samples were cut into 1×6 cm strips and treated with the solutions (Table 10) for 15 minutes and dried at ambient temperature for 12 hours. The treated 1 cm strips were then cut into lx1 cm pieces, placed into SOLARIS scintillation vials, and 1 ml of MOPS buffer was added. The open vials were placed into outer SOLARIS vials containing thymolphthalein blue pH indicator and the vials were finally capped. The sealed vials were placed into a SOLARIS machine and incubated for 120 hrs at 37° C. Colorimetric measurements were conducted according to SOLARIS VIV protocol and the detection times of acidic respiratory byproducts were record (Table 10).

Q: For `C=CCCCCCCCCC=O` [Intreleven Aldehyde, undec-10-en-1-al], which “VP(torr) @25° C.” value [1] is on record?
A: 0.060 torr

Q: Which “ambient temperature water solubility (benchmark)” value [2] does the source give for “hydroxypropyl modified beta cyclodextrin” here?
A: ≥ 60 g/100 ml

Q: With `COC1CC2CC1C1CC(C=O)CC21` (stereo not shown) [Scentenal, octahydro-5-methoxy-4,7-Methano-1H-indene-2-carboxaldehyde] as the molecule, how does the “VP(torr) @25° C.” value [1] read?
A: 0.010 torr

Q: For `CC(C=O)Cc1ccc(C(C)C)cc1` (stereo not drawn) [Cymal, Alpha-methyl-p-isopropyl phenyl propyl aldehyde], which “VP(torr) @25° C.” value [1] is on record?
A: 0.007 torr

Q: With `CC(C)c1cccc(C(C)CC=O)c1` (stereo not shown) [Florhydral, 3-(3-Isopropyl-phenyl)-butyraldehyde] as the molecule, how does the “VP(torr) @25° C.” value [1] read?
A: 0.008 torr

Q: With `C=CC(C)CCC=C(C)CCC=O` (stereo not shown) [Floral Super] as the molecule, how does the “VP(torr) @25° C.” value [1] read?
A: 0.030 torr

Q: For `[Cl-].[Cl-].[Zn+2]` [ZnCl2], which “Butylamine (Fish) head space concentration normalized to Control” value [3] is on record?
A: 0.0

Q: And the “Isovaleric Acid (Body) head space concentration normalized to Control” value [3]?
A: 1.0

Q: What about the “Nonanal (Grease) head space concentration normalized to Control” value [3] of the same molecule?
A: 1.0

Q: And the “Butanethiol head space concentration normalized to Control” value [4]?
A: 0.8

Q: What about the “Dipropylsulfide head space concentration normalized to Control” value [4] of the same molecule?
A: 1.0

Q: And the “Respiratory Byproducts Detection Time” value [5]?
A: 3.38 h

Q: With `COc1ccccc1C=O` [o-anisaldehyde] as the molecule, how does the “VP(torr) @25° C.” value [1] read?
A: 0.032 torr
